Experimental data taken from ChEMBL document CHEMBL5537193, “Multitargeting HDAC Inhibitors Containing a RAS/RAF Protein Interfering Unit” (J Med Chem, 2024).
Active and inactive are the calls of the source. The rule behind the calls is not given here.

Columns and labels:
HT-29 [1] = assay: Antitumor activity against human HT-29 cells xenografted in BALB/c nude mouse assessed as tumor growth inhibition administered intraperitoneally once a day for 24 days; assay type: functional, cell-based; conditions: route ip, time 24.0 day
HT-29 [2] = assay: Inhibition of MAPK signaling pathway in human HT-29 cells assessed as inhibition of C-RAF phosphorylation at Ser338 residue at 2 uM incubated for 24 hrs by Western blot analysis; assay type: cell-based

COc1cc(OC)c(/C=C/S(=O)(=O)Cc2ccc(OC)c(NCC(=O)NO)c2)c(OC)c1
TGI (HT-29 [1]): Dose-Dependent Effect | inhibition (HT-29 [2]): Active
